Patent US7235679B2, “Crystals of a vitamin D derivative and a method for the preparation thereof” (Chugai Seiyaku Kabushiki Kaisha, priority 1996, dated 2007)

Assay: Stability test of ED-71: purity measurement using reverse phase HPLC
Format: physicochemical
Conditions: for Purity Measurement Using Reverse Phase HPLC, ED-71 peak / Purity Measurement Using Reverse Phase HPLC, Other peaks / Purity Measurement Using Reverse Phase HPLC, Pre Form peak: 265 nm
Method: Amorphous and crystalline ED-71 compounds were tested for stability at 10, 25 and […]. To estimate the stability, HPLC quantitative assay and absorbance and purity measurements were utilized. The purity was expressed as peak area ratio in percentage in HPLC (% P.A.R.). The test was carried out by using the following procedures:
About 2 mg portions of each of the amorphous and crystalline samples are precisely weighed into transparent 10 ml test tubes each having screw cap, individually.
The test tubes are purged with argon using a vacuum desiccator and a glove box. This purging procedure is not applied to the test tubes indicated as “1 M (air)” in the tables below.
The test tubes in groups are fixed in thermostatic baths which are respectively controlled at the above temperatures and allowed to stand in the dark. After one (1 W) or two (2 W) weeks or one month (1 M), the test tubes are removed from the baths and subjected to the following assay and measurements:
HPLC is carried out using 25 μl of the sample solution as prepared in “HPLC quantitative assay” above. • HPLC conditions used: • Column: Inertsil ODS-2 (5×250 mm) • Mobile phase: acetonitrile/water mixture (55/45) • Flow rate: 1 ml/min • Detection: at UV 265 and 220 nm.

C=C1/C(=C\C=C2/CCC[C@]3(C)[C@@H]([C@H](C)CCCC(C)(C)O)CC[C@@H]23)C[C@@H](O)[C@@H](OCCCO)[C@@H]1O [Crys., 1α,25-dihydroxy-2β-(3-hydroxypropoxy)vitamin D3]
220 nm (%), Other peaks (10° C., time 0): 2.04%
220 nm (%), Pre Form peak (10° C., time 0): 0.52%
220 nm (%), ED-71 peak (25° C., 1 W, argon, dark): 98.17%
220 nm (%), Other peaks (25° C., 1 W, argon, dark): 1.40%
220 nm (%), Pre Form peak (25° C., 1 W, argon, dark): 0.44%
220 nm (%), ED-71 peak (25° C., 2 W, argon, dark): 97.56%
220 nm (%), Other peaks (25° C., 2 W, argon, dark): 1.43%
220 nm (%), Pre Form peak (25° C., 2 W, argon, dark): 1.01%
220 nm (%), ED-71 peak (25° C., time 0): 97.44%
220 nm (%), Other peaks (25° C., time 0): 2.04%
220 nm (%), Pre Form peak (25° C., time 0): 0.52%
220 nm (%), ED-71 peak (40° C., 1 W, argon, dark): 98.18%
220 nm (%), Other peaks (40° C., 1 W, argon, dark): 1.35%
220 nm (%), Pre Form peak (40° C., 1 W, argon, dark): 0.47%
220 nm (%), ED-71 peak (40° C., 2 W, argon, dark): 97.65%
220 nm (%), Other peaks (40° C., 2 W, argon, dark): 1.33%
220 nm (%), Pre Form peak (40° C., 2 W, argon, dark): 1.02%
220 nm (%), ED-71 peak (40° C., time 0): 97.44%
220 nm (%), Other peaks (40° C., time 0): 2.04%
220 nm (%), Pre Form peak (40° C., time 0): 0.52%
Purity Measurement Using Reverse Phase HPLC, ED-71 peak (10° C., 1 M (air), dark): 98.72 % P.A.R
Purity Measurement Using Reverse Phase HPLC, Other peaks (10° C., 1 M (air), dark): 0.42 % P.A.R
Purity Measurement Using Reverse Phase HPLC, Pre Form peak (10° C., 1 M (air), dark): 0.86 % P.A.R
Purity Measurement Using Reverse Phase HPLC, ED-71 peak (10° C., 1 M, argon, dark): 98.77 % P.A.R
Purity Measurement Using Reverse Phase HPLC, Other peaks (10° C., 1 M, argon, dark): 0.37 % P.A.R
Purity Measurement Using Reverse Phase HPLC, Pre Form peak (10° C., 1 M, argon, dark): 0.86 % P.A.R
Purity Measurement Using Reverse Phase HPLC, ED-71 peak (10° C., 2 W, argon, dark): 98.84 % P.A.R
Purity Measurement Using Reverse Phase HPLC, Other peaks (10° C., 2 W, argon, dark): 0.32 % P.A.R
Purity Measurement Using Reverse Phase HPLC, Pre Form peak (10° C., 2 W, argon, dark): 0.83 % P.A.R
Purity Measurement Using Reverse Phase HPLC, ED-71 peak (10° C., time 0): 99.04 % P.A.R
Purity Measurement Using Reverse Phase HPLC, Other peaks (10° C., time 0): 0.60 % P.A.R
Purity Measurement Using Reverse Phase HPLC, Pre Form peak (10° C., time 0): 0.36 % P.A.R
Purity Measurement Using Reverse Phase HPLC, ED-71 peak (25° C., 1 W, argon, dark): 99.35 % P.A.R
Purity Measurement Using Reverse Phase HPLC, Other peaks (25° C., 1 W, argon, dark): 0.38 % P.A.R
Purity Measurement Using Reverse Phase HPLC, Pre Form peak (25° C., 1 W, argon, dark): 0.28 % P.A.R
Purity Measurement Using Reverse Phase HPLC, ED-71 peak (25° C., 2 W, argon, dark): 98.78 % P.A.R
Purity Measurement Using Reverse Phase HPLC, Other peaks (25° C., 2 W, argon, dark): 0.37 % P.A.R
Purity Measurement Using Reverse Phase HPLC, Pre Form peak (25° C., 2 W, argon, dark): 0.85 % P.A.R
Purity Measurement Using Reverse Phase HPLC, ED-71 peak (25° C., time 0): 99.04 % P.A.R
Purity Measurement Using Reverse Phase HPLC, Other peaks (25° C., time 0): 0.60 % P.A.R
Purity Measurement Using Reverse Phase HPLC, Pre Form peak (25° C., time 0): 0.36 % P.A.R
Purity Measurement Using Reverse Phase HPLC, ED-71 peak (40° C., 1 W, argon, dark): 99.40 % P.A.R
Purity Measurement Using Reverse Phase HPLC, Other peaks (40° C., 1 W, argon, dark): 0.31 % P.A.R
Purity Measurement Using Reverse Phase HPLC, Pre Form peak (40° C., 1 W, argon, dark): 0.29 % P.A.R
Purity Measurement Using Reverse Phase HPLC, ED-71 peak (40° C., 2 W, argon, dark): 98.75 % P.A.R
Purity Measurement Using Reverse Phase HPLC, Other peaks (40° C., 2 W, argon, dark): 0.40 % P.A.R
Purity Measurement Using Reverse Phase HPLC, Pre Form peak (40° C., 2 W, argon, dark): 0.85 % P.A.R
Purity Measurement Using Reverse Phase HPLC, ED-71 peak (40° C., time 0): 99.04 % P.A.R
Purity Measurement Using Reverse Phase HPLC, Other peaks (40° C., time 0): 0.60 % P.A.R
Purity Measurement Using Reverse Phase HPLC, Pre Form peak (40° C., time 0): 0.36 % P.A.R
